Consider one compound from patent US12171752B2, “Methods of treating post-COVID condition(s)” (priority 2022, dated 2024).

One data set deals with TNFα. Description: Spike protein-mediated TNFα release from human monocyte-derived microglia (iMDM). It counts as cell-based. Conditions: for Dose dependence of TNFα reduction: ibudilast 1, 10 or 100 μM.
In another data set the test system is MIF. The experiment in a line: Plasma level of MIF. Conditions: found by the inventors.
The next data set deals with PDE 11A1 (Homo sapiens, UniProt Q9HCR9). Conditions: Gibson et al., Eur J Pharmacol 2006; cited from earlier work.
The target of another data set is PDE 10A1 (Homo sapiens, UniProt Q9Y233). Conditions: Gibson et al., Eur J Pharmacol 2006; cited from earlier work.
Data set [1] has as its target toll-like receptor-4 (TLR4) (Homo sapiens, UniProt O00206). Conditions: Yang et al., Cell Death and Disease 2016; cited from earlier work.
For the next data set, the system named is leukotriene D4. Conditions: reported; cited from earlier work.
For data set [2] the following is noted: Sanftner et al., Xenobiotica 2009; cited from earlier work.
Data set [3] deals with T1, macrophage inhibitory factor (MIF) (Homo sapiens, UniProt P14174).
T1 sequence (P14174 2-115 limits assumed): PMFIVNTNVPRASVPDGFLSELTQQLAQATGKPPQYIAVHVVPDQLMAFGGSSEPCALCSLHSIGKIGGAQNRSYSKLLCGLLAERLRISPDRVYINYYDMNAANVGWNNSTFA
Conditions: Cho et al., PNAS-USA 2010; cited from earlier work.

Another data set relates to PAF. Conditions: reported; cited from earlier work.
Another data set has as its target PDE 3A (Homo sapiens, UniProt Q14432). Conditions: Gibson et al., Eur J Pharmacol 2006; cited from earlier work.
For the next data set, the system named is PDE 4. Conditions: Gibson et al., Eur J Pharmacol 2006; cited from earlier work.
The subject of the next data set is IL-6. The experiment in a line: Spike protein-mediated IL-6 release from human monocyte-derived microglia (iMDM). It counts as cell-based.

toll-like receptor-4 (TLR4), sequence (O00206 24-839, species assumed): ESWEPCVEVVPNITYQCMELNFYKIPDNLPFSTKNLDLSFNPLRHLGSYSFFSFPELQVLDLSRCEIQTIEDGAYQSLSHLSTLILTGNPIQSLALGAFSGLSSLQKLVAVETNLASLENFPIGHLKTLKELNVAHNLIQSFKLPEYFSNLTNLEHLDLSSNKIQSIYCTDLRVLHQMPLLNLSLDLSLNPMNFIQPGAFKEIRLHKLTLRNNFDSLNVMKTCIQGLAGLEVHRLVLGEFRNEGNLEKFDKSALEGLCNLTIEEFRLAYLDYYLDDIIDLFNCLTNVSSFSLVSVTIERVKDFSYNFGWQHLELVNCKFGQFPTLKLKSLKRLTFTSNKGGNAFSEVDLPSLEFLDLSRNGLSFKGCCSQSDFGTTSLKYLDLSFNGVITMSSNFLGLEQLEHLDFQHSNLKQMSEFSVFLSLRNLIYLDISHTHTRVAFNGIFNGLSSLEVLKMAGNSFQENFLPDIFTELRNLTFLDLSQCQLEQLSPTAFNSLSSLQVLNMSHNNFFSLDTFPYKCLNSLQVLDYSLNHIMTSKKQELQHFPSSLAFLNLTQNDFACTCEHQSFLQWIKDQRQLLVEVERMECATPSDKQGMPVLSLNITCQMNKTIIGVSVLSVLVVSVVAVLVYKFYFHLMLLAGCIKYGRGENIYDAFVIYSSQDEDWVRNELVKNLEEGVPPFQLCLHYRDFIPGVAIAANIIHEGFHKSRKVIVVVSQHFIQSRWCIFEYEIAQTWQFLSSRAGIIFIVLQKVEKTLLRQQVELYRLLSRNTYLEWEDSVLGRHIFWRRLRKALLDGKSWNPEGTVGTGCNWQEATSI
PDE 3A, sequence (Q14432 whole entry): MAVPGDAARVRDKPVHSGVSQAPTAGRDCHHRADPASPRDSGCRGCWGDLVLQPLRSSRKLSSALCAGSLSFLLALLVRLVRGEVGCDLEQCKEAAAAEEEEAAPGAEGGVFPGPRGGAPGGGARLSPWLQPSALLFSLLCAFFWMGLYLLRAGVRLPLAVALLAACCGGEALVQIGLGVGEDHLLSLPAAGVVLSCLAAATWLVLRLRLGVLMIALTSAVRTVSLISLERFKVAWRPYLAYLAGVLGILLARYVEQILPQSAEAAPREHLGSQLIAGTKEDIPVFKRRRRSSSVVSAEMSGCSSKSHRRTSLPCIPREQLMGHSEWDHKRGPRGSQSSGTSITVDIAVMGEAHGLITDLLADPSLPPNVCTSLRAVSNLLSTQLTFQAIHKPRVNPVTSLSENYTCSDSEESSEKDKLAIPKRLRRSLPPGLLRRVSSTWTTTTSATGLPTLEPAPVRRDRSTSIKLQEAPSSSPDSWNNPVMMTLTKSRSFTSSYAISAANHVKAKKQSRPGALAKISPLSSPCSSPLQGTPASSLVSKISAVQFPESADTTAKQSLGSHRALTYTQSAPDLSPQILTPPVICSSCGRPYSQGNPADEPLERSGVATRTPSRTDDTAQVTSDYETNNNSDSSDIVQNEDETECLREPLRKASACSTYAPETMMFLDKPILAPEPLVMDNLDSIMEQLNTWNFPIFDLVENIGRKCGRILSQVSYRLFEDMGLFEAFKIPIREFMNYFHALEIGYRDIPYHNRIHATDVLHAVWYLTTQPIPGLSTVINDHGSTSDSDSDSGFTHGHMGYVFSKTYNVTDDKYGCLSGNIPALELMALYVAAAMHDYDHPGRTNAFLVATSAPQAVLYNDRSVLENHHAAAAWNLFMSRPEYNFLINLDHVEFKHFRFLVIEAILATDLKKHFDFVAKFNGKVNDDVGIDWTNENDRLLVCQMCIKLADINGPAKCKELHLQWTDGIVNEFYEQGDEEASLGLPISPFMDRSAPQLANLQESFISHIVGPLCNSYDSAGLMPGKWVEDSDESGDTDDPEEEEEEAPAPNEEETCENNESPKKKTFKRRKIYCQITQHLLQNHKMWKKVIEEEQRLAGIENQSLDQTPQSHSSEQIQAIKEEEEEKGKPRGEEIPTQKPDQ
PDE 10A1, sequence (Q9Y233 1-779 isoform Q9Y233-1): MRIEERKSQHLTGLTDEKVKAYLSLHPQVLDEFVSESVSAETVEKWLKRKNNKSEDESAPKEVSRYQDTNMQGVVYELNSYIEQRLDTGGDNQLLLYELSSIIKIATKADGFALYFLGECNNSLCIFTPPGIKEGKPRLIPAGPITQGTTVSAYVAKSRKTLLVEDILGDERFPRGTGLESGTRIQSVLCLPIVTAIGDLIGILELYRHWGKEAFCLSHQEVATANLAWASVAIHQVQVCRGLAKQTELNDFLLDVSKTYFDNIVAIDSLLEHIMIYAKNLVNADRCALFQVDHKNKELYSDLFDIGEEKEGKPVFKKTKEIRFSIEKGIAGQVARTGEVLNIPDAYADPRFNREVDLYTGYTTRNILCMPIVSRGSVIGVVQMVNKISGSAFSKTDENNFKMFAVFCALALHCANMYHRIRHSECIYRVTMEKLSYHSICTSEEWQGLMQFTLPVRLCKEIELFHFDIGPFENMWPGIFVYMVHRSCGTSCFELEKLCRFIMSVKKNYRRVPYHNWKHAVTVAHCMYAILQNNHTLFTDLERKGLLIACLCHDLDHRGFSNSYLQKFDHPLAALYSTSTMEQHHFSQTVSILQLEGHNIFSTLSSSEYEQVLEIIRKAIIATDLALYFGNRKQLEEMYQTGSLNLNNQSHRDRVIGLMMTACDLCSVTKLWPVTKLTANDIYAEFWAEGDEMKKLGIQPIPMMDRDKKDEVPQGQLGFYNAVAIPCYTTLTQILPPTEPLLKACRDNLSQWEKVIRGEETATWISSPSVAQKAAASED
PDE 11A1, sequence (Q9HCR9 445-933): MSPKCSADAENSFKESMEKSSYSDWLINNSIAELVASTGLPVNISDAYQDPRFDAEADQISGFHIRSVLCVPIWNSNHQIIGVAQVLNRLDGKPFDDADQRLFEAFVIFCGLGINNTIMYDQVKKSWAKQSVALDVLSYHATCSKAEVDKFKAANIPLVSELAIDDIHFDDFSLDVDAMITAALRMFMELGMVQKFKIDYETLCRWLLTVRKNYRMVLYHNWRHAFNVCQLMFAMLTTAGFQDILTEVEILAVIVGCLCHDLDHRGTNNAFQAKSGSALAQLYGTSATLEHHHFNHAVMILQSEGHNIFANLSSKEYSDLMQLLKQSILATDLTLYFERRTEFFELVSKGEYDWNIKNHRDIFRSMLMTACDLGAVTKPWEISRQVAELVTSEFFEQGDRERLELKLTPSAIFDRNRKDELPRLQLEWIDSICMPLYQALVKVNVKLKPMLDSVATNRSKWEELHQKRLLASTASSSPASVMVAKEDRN

Take `CC(C)C(=O)c1c(C(C)C)nn2ccccc12` [Ibudilast, 2-methyl-1-(2-(1-methylethyl)pyrazolo (1,5-a)pyridin-3-yl) 1-propanone]: the “Dose dependence of TNFα reduction” value was “Dose-dependent curves are observed” in the data set with TNFα ("Omicron" spike protein (1.0 μg/ml) with cross-linker, all 3 donors) and “Dose-dependent curves are observed” in the data set on TNFα ("Omicron" spike protein (5.0 μg/ml) with cross-linker, donor 3). Besides, in the data set on TNFα ("Omicron" spike protein, under certain test conditions, FIGS. 6-8), the “TNFα levels elevated by "Omicron" spike protein” value is given as “reduction by ibudilast was evident under certain test conditions”. Besides, the “(LPS+spike protein)-evoked levels of TNFα” value in the data set on TNFα (all donors, FIGS. 1-3) is recorded as “reduced”. In addition, the TNFα levels entry with TNFα (iMDM, […], ibudilast 1.0, 10, 100 μM) is “reduce”. For the same compound, the “plasma level of MIF” value in the data set on MIF is listed as “lowers plasma level of MIF”. Moreover, on PDE 11A1, the “PDE 11A1 inhibition” value is recorded as “selective inhibitor”. In addition, at PDE 10A1, the “PDE 10A1 inhibition” value is listed as “selective inhibitor”. Moreover, in data set [1], the TLR4 antagonistic activity result is “antagonistic activity”. In addition, the “leukotriene D4 antagonistic activity” value in the data set with leukotriene D4 is listed as “antagonistic activities”. Further, in data set [2], the CNS penetration result was “good CNS penetration”. Also, in [3], the “HPP tautomerase activity of MIF” value is “allosteric inhibitor”. Further, the PAF antagonistic activity result in the data set with PAF is given as “antagonistic activities”. Besides, the “PDE 3A inhibition” value on PDE 3A is listed as “selective inhibitor”. Also, the “PDE 4 inhibition” value in the data set on PDE 4 was “selective inhibitor”. The “(LPS+spike protein)-evoked levels of IL-6” value in the data set with IL-6 (donors 2 and 3, FIGS. 4-5) was “reduced”. Further, the IL-6 levels entry with IL-6 (iMDM, "low" concentration (10 ng/mL) of LPS added with the spike proteins (all variants), ibudilast 1.0, 10, 100 μM) was “reduce”.
